Data reported in patent US20260207777A1, “IMPROVED PEPTIDE INHIBITORS OF P53 BINDING PROTEIN 53BP1” (KAMAU THERAPEUTICS, INC., priority 2022, published 2026).

How the values were obtained:
53BP1 = 53BP1 (Homo sapiens, UniProt Q12888); details: transiently expressed in cells; cited from earlier work
53BP1 Tudor domain = 53BP1 Tudor domain (Homo sapiens, UniProt Q12888); details: previously reported; mutants relative to i53; cited from earlier work
CD34+ HSPCs [1] = assay: editing of CD34+ HSPCs with purified i53 variant proteins and HBB-SNP AAV donor; NGS of editing outcomes; assay type: cell-based, human; details: for increase in levels of HDR corrected alleles over control edited cells: FIG. 13; for increase in levels of HDR corrected alleles over DM: L67R/L67H value is the average of both
Method: (§1) Chemically-modified single guide RNAs (sgRNAs) used to edit CD34+ HSPCs at the HBB locus were purchased from Synthego. The sgRNA sequences were modified by adding 2′-O-methyl-3′-phosphorothioate at the three terminal nucleotides of the 5′ and 3′ ends. The target sequence for the HBB sgRNA is as follows: HBB: 5′[…]-3′ (SEQ ID NO: 74). Cas9 protein (SpyFi Cas9) was purchased from Aldevron. The RNPs were complexed at a Cas9:sgRNA molar ratio of 1:2.5 at 25° C. for 10-15 min prior to electroporation. Cells were collected, counted, and pelleted at 180 g×7 min. The cell pellets were resuspended in Maxcyte buffer with complexed RNPs and electroporated using a Maxcyte EXPERT ATx Nucleofector. After electroporation cells were plated at 3.5×10^5 cells/mL in media supplemented with cytokines and the desired AAV donor added at 5.0×10^2-2.5×10^4 vector genomes/cell. 24 h after nucleofection, cells were spun down, washed once with media, and seeded into AAV-free media at a density of 3.5×10^5 cells/mL.
(§2) CD34+ HPSCs were edited with protein variants 3 days post thaw and were harvested 2 days post nucleofection for NGS analysis or 3-5 days post nucleofection for GFP expression analysis. Editing reactions with proteins at a given concentration were repeated in duplicate or triplicate (either using the same CD34+ HSPC donor or across multiple donors).
24 h after nucleofection, cells were spun down, washed with media, and seeded into AAV and DNAPKi-free media at a density of 3.5×10^5 cells/mL.
The frequency of homology directed repair (HDR) and other editing outcomes at HBB were measured using Next Generation Sequencing (NGS). An NGS assay was developed to determine the frequency of at the HBB locus by quantifying the total number of alleles that have been either: (1) not edited (% WT), (2) changed by HDR to incorporate sequence differences present in the AAV repair template (% HR), or (3) mutated during the genome correction process resulting in a gene that produces mutant β-globin (% INDELs).
For this assay, genomic DNA was harvested from cells using a Quick-DNA 96 Plus Kit (Zymo Research). The DNA concentration was measured using a Qubit 1×dsDNA BR assay kit (ThermoFisher). Purified genomic DNA was then used to amplify the HBB locus via polymerase chain reaction (PCR). The PCR products were diluted using nuclease-free water to serve as the template DNA for targeted NGS library prep. A second PCR with primers carrying partial Illumina adapters was performed to amplify a 142 base pair sequence that includes the region of the HBB locus that is to be corrected during the genome correction process. The PCR products were diluted again to serve as templates in a third PCR reaction using Nextera XT index primers. This third PCR reaction was used to assign unique identifiers to each sample and to add the full length adapter sequences necessary for Illumina sequencing. The size of the PCR products was assessed on an Agilent BioAnalyzer. PCR products were then pooled, purified using a Qiagen PCR purification kit, and quantified using PicoGreen in order to ready the PCR products for sequencing.
Based on the PicoGreen concentration, the library of pooled PCR products was diluted to a final concentration of 4 nM. Sequencing was performed on a MiSeq system using an Illumina MiSeq sequencing reagent kit (V2, 300 cycles). A 10% PhiX control library was added to the sample library to improve sequence diversity and to allow for error rate measurements. The library was denatured and loaded at […] onto the sequencing reagent cartridge. The sequencing entails paired-end 150 base pair reads and dual indexing reads. The sequencing data was demultiplexed based on the sample indexes provided and FASTQ files for each sample are generated.
The FASTQ files were processed using the CRISPResso2 pipeline^3. The data was reported as % WT, % corrected by HR, and % INDELs. […]

CD34+ HSPCs [2] = assay: editing at the off-target editing site OT-1 (NGS-based analysis); assay type: cell-based, human; details: protein 0.8 mg/mL
Excerpt: Editing outcomes at the off-target (OT) editing site OT-1 can be assessed using an assay very similar to the one described above for measuring the targeted integration of HBB-SNP. The off-target editing site was identified via three different methods (in silico prediction,^13 Circle-Seq,^14 and Guide-Seq^15) and was confirmed to be off-target editing site of significance via amplicon sequencing. The workflow for the OT-1 amplicon sequencing assay is very similar to the on-target sequencing assay but involves one less PCR step. A small 166 base pair sequence encompassing the OT-1 editing site is amplified directly from genomic DNA in the first PCR and then tagged with barcode and adapter sequences in a second PCR. The resulting PCR products are sized, quantified, and prepared for sequencing in the same manner as for the HBB on-target sequencing assay. The sequencing data is also processed using the Crispresso2 pipeline,^3 but in contrast to the on-target sequencing assay no homology direct repair outcomes are present at OT-1, only % WT and % INDELs are reported.

CD34+ HSPCs [3] = assay: editing of CD34+ HSPCs with purified i53 variant proteins and HBB-UBC-GFP AAV donor; flow cytometry; assay type: cell-based, human; details: for increase in levels of GFP integration over control edited cells: HBB-UBC-GFP AAV MOI 2500
Method: as §1, §2
Rates of targeted integration of the HBB UBC GFP donor were measured using a Beckman Coulter CytoFLEX. DAPI (Miltenyi Biotec) was used to discriminate live and dead cells. Flow cytometry data were analyzed using FlowJo 10 software.

[4] = test system: HDR-mediated integration of a donor sequence; assay: i53 as protein-based additive, enhancement of HDR-mediated integration of a donor sequence (data not shown); assay type: cell-based; details: 1.5 mg/mL purified i53 in nucleofection solution, relatively inconsistent results

Sequence of 53BP1 (Q12888 whole entry, the tested form may be a part): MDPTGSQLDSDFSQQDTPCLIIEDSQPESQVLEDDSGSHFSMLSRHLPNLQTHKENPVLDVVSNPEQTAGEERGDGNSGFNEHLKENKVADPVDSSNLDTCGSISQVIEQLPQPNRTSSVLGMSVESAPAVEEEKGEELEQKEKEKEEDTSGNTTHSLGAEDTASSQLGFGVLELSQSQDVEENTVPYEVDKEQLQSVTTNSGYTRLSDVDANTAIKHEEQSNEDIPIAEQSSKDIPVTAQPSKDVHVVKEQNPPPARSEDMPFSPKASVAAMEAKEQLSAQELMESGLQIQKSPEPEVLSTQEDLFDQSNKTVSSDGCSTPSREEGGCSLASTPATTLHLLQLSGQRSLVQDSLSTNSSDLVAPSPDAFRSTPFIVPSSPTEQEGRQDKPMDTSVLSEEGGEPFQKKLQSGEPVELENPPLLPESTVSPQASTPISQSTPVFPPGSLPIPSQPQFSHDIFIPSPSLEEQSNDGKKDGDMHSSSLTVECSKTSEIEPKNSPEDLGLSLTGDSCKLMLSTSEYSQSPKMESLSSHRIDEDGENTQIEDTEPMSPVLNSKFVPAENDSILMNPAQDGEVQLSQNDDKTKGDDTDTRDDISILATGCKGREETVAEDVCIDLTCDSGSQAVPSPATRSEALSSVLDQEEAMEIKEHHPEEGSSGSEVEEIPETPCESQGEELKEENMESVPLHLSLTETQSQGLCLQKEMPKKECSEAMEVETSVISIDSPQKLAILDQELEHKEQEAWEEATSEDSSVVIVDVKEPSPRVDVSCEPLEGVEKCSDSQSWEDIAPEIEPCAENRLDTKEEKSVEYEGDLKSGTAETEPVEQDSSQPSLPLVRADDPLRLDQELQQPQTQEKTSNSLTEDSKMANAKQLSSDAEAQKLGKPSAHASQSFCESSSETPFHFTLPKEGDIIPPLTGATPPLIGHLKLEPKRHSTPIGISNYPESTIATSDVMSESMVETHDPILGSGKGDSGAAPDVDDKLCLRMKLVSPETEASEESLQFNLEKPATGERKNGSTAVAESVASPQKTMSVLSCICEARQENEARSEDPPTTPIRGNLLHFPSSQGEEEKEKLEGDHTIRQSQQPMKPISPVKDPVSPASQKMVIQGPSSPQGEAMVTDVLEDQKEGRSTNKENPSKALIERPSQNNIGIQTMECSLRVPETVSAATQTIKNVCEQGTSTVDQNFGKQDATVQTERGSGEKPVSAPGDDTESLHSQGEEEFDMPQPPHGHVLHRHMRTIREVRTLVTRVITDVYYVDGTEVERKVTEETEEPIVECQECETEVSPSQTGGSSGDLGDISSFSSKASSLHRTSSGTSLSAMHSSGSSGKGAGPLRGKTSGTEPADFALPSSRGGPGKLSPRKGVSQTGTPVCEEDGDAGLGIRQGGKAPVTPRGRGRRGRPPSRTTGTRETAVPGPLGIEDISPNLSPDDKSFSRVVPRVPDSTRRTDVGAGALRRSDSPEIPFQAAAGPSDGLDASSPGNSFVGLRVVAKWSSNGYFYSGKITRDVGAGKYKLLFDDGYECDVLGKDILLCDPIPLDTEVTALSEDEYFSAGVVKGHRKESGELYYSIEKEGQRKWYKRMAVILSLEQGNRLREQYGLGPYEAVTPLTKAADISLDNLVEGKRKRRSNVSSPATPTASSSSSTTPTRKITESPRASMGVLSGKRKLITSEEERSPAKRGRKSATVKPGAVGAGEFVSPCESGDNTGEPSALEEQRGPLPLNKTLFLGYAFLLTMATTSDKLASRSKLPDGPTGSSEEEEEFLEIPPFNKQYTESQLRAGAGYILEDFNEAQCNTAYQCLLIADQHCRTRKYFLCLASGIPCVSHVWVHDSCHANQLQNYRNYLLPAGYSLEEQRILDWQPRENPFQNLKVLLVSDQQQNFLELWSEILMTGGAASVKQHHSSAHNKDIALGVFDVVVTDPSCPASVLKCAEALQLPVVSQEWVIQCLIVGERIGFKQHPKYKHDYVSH
Sequence of 53BP1 Tudor domain (Q12888 1484-1603 limits assumed): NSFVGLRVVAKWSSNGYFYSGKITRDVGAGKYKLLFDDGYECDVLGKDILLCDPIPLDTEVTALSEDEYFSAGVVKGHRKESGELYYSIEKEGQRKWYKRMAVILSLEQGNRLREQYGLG

In the case of “i53: engineered ubiquitin variant, known inhibitor of 53BP1, selectively binds the Tudor domain of 53BP1 [reference compound]”, the “recruitment of 53BP1 to DSBs” value (53BP1) is listed as “block recruitment of 53BP1 to DSBs”, the “binding to the 53BP1 Tudor domain” value (53BP1 Tudor domain) is listed as “selectively bind” and the “increase in levels of HDR corrected alleles over control edited cells” value (CD34+ HSPCs [1]; MOI 312.5, protein 0.1 mg/mL) is listed as 18%. For the same substance, the “increase in levels of HDR corrected alleles over control edited cells” value (CD34+ HSPCs [1]; MOI 312.5, protein 0.2 mg/mL) was 24%, the “increase in levels of HDR corrected alleles over control edited cells” value (CD34+ HSPCs [1]; MOI 312.5, protein 0.4 mg/mL) was 45% and the “increase in levels of HDR corrected alleles over control edited cells” value (CD34+ HSPCs [1]; MOI 2500, protein 0.1 mg/mL) was 3%. The “increase in levels of HDR corrected alleles over control edited cells” value (CD34+ HSPCs [1]; MOI 2500, protein 0.2 mg/mL) was 5%, the “increase in levels of HDR corrected alleles over control edited cells” value (CD34+ HSPCs [1]; MOI 2500, protein 0.4 mg/mL) was 18% and the “levels of HDR corrected alleles (normalized by total edited alleles), dose response” value (CD34+ HSPCs [1]; FIG. 26, protein 0.2, 0.4 and 0.8 mg/mL, MOIs 312.5 and 2500) was “decrease significantly as the protein concentrations decreased”. For the same substance, the “increase in levels of HDR corrected alleles over DM” value (CD34+ HSPCs [1]; HBB-SNP AAV MOI 312.5, protein 0.4 mg/mL) was 14%, the “increase in levels of HDR corrected alleles over DM” value (CD34+ HSPCs [1]; HBB-SNP AAV MOI 2500, protein 0.4 mg/mL) was 15% and the “frequency of INDELS at the off-target editing site OT-1” value (CD34+ HSPCs [2]) was “not significantly increase”. For the same substance, the “increase of % HDR over DM” value (CD34+ HSPCs [3]; HBB-UBC-GFP AAV MOI 1250, protein 0.4 mg/mL, GFP integration in live cells, L67R/L67H value is the average of both) was 19%, the “increase in levels of GFP integration over control edited cells” value (from here on “increase in levels of GFP integration”) (CD34+ HSPCs [3]; protein 0.1 mg/mL) was 5% and the “increase in levels of GFP integration” value (CD34+ HSPCs [3]; protein 0.2 mg/mL) was 18%. The “increase in levels of GFP integration” value (CD34+ HSPCs [3]; protein 0.4 mg/mL) was 29%, the “increase in levels of GFP integration” value (CD34+ HSPCs [3]; protein 0.8 mg/mL) was 45% and the “increases in HDR-mediated integration of a donor sequence” value [4] was 10-20%.
